From PubChem BioAssay (NCI) come the findings set out here.

Test systems include HT29 colon; KM20L2 colon; SW-620 colon; DMS 273 small cell lung; OVCAR-4 ovarian; SN12C renal; HCT-15 colon; KM12 colon; LXFL 529 NSCLC; XF 498 CNS; HOP-92 NSCLC; NCI/ADR-RES ovarian.
Common to all, as to experiment: NCI anticancer screen, dose series, 48 h

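All cell lines were grown in 96-well plates and treated with compound for 48 hours. GI50 = concentration required for 50% inhibition of growth. TGI denotes the concentration required for complete inhibition of growth.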

As for `CC1(c2ccc[n+](Cc3ccccc3)c2)OCCO1`, the TGI in the assay with HT29 colon, in the assay with KM20L2 colon, in the assay on SW-620 colon, in the assay with DMS 273 small cell lung, with OVCAR-4 ovarian and with SN12C renal was over 100 µM throughout. Further, the TGI in the assay on HCT-15 colon, in the assay on KM12 colon and with LXFL 529 NSCLC was over 100 µM throughout.
Consider `COc1cc(C(C)c2cc3c(cc2OCCO)OCO3)cc(OC)c1OC` (centres undefined), for which the TGI in the assay with HT29 colon is over 100 µM; in the assay on SW-620 colon, over 100 µM; in the assay on DMS 273 small cell lung, over 100 µM; in the assay with OVCAR-4 ovarian, over 100 µM; with SN12C renal it was over 100 µM; with XF 498 CNS, 5.33 µM. The TGI in the assay with HCT-15 colon and in the assay with LXFL 529 NSCLC was over 100 µM in each case.
For the compound `COc1cc2c(cc1OC)C(Cl)C(c1ccc(Cl)c(Cl)c1)=C2Cl` (centres undefined), the TGI with HT29 colon came out at 12.2 µM; with KM20L2 colon, 25.7 µM; in the assay on SW-620 colon, 20 µM; in the assay with DMS 273 small cell lung, 14.7 µM; in the assay on HOP-92 NSCLC, 15.1 µM; in the assay with SN12C renal, 26.5 µM. Moreover, the figures for the TGI in the assay with HCT-15 colon and in the assay with LXFL 529 NSCLC were 12.6 µM and 17.2 µM, respectively.
For the compound `CCOC(=O)Cc1cc(OC)c(OC)cc1/C(Cl)=C(\C=O)c1ccc(OC)c(OC)c1`, the TGI in the assay with HT29 colon came out at 29.2 µM; in the assay with KM20L2 colon it was 35.7 µM; in the assay on SW-620 colon, 57 µM; in the assay with DMS 273 small cell lung, 44.3 µM; in the assay on OVCAR-4 ovarian, 56.3 µM; in the assay with HOP-92 NSCLC, 10.3 µM. Moreover, the TGI in the assay on SN12C renal turned out to be 33.5 µM; with XF 498 CNS, 46.2 µM; in the assay with HCT-15 colon, 45.2 µM.
For `N#Cc1c(-c2ccc(Cl)cc2)c2c(n(C3OC(CO)C(O)C(O)C3O)c1=S)CCC2` (centres undefined), the TGI in the assay on HT29 colon was over 100 µM; in the assay with SW-620 colon, 58.4 µM; with OVCAR-4 ovarian, over 100 µM; in the assay on NCI/ADR-RES ovarian, over 100 µM; with HOP-92 NSCLC it was 60.7 µM; with SN12C renal it was over 100 µM. In addition, the TGI with HCT-15 colon and with KM12 colon was over 100 µM each time.
For `CCOC(=O)c1cnc2oc3ccc(O)cc3c2c1-c1ccccc1`, the TGI was over 100 µM with HT29 colon; over 100 µM in the assay with SW-620 colon; over 100 µM in the assay on OVCAR-4 ovarian; 73.7 µM in the assay on NCI/ADR-RES ovarian; over 100 µM in the assay on HOP-92 NSCLC; over 100 µM in the assay on SN12C renal. Also, the TGI with HCT-15 colon and in the assay with KM12 colon was over 100 µM each time. Also, the GI50 with NCI/ADR-RES ovarian was 4.77 µM; in the assay with KM12 colon, 5.11 µM.
`COc1ccc(C(=O)Cc2ccc(Br)cc2)cc1OC`: the TGI in the assay with HT29 colon, with KM20L2 colon, in the assay on SW-620 colon, with DMS 273 small cell lung, in the assay with OVCAR-4 ovarian and in the assay on SN12C renal was over 100 µM throughout. Also, the figures for the TGI in the assay with XF 498 CNS, in the assay with HCT-15 colon and with LXFL 529 NSCLC were 71 µM, over 100 µM and over 100 µM, respectively.
For the compound `O=c1c2cc(I)ccc2nc(-c2cccs2)n1-c1ccc(O)cc1`, the TGI with HT29 colon was determined as 27.1 µM; in the assay with SW-620 colon, 69.6 µM; in the assay with OVCAR-4 ovarian, 49.1 µM; with NCI/ADR-RES ovarian, 56.2 µM; in the assay with HOP-92 NSCLC it was 26.9 µM; in the assay with SN12C renal, 40.7 µM. The TGI in the assay on HCT-15 colon came out at 26.1 µM; with KM12 colon it was 25.1 µM.
As for `CCCC(=O)NC(Nc1ccc(S(=O)(=O)Nc2nc(C)cc(C)n2)cc1)(C(F)(F)F)C(F)(F)F`, the TGI in the assay with HT29 colon, with SW-620 colon, in the assay with OVCAR-4 ovarian, in the assay on NCI/ADR-RES ovarian, with HOP-92 NSCLC and in the assay on SN12C renal was over 100 µM in each case. In addition, the TGI with HCT-15 colon and in the assay on KM12 colon was over 100 µM each time.
As to `c1ccc2c(c1)CCc1c-2n(CCN2CCOCC2)c2ccccc12`, the TGI is 25.9 µM with HT29 colon; over 100 µM with SW-620 colon; over 100 µM in the assay on OVCAR-4 ovarian; over 100 µM with NCI/ADR-RES ovarian; 38.1 µM with HOP-92 NSCLC; over 100 µM in the assay with SN12C renal. Moreover, the TGI was over 100 µM in the assay with HCT-15 colon and 27.3 µM with KM12 colon.
For the compound `O=C(Cn1c(C(=O)/C=C/c2cccs2)nc2ccccc21)c1ccc(Cl)cc1`, the TGI in the assay on HT29 colon is 56.9 µM; in the assay on SW-620 colon it was over 100 µM; with OVCAR-4 ovarian it was 76.9 µM; with NCI/ADR-RES ovarian it was 38.4 µM; in the assay with HOP-92 NSCLC, 93 µM; in the assay on SN12C renal it was 50.1 µM. Further, the TGI stood at 83 µM in the assay with HCT-15 colon and 46.6 µM in the assay with KM12 colon.
As to `COc1cc2cc[n+]3c(C)c4cc(OC)c(OC)cc4c([O-])c3c2cc1OC`, the TGI with HT29 colon, with KM20L2 colon, in the assay on SW-620 colon, in the assay on DMS 273 small cell lung, in the assay on OVCAR-4 ovarian and in the assay with HOP-92 NSCLC was over 100 µM each time. In addition, the TGI in the assay on SN12C renal was over 100 µM; in the assay with XF 498 CNS, 82.1 µM; in the assay on HCT-15 colon it was over 100 µM; in the assay on KM12 colon it was over 100 µM; with LXFL 529 NSCLC, over 100 µM.
Turning to `CCN(C(=S)N[C@H](C(=O)N[C@@H](C)C(=O)OC)C(C)C)c1ccccc1`, the TGI in the assay with HT29 colon, in the assay with SW-620 colon, in the assay with OVCAR-4 ovarian, with NCI/ADR-RES ovarian, in the assay with HOP-92 NSCLC and in the assay on SN12C renal was over 100 µM each time. The TGI in the assay on HCT-15 colon and in the assay with KM12 colon was over 100 µM in each case.
Consider `COc1c(O)cc(O)c2c(=O)cc(-c3ccccc3)oc12`, for which the TGI in the assay with HT29 colon, in the assay on SW-620 colon, with OVCAR-4 ovarian, in the assay with NCI/ADR-RES ovarian, with HOP-92 NSCLC and in the assay on SN12C renal was over 100 µM each time. In addition, the TGI with HCT-15 colon and in the assay with KM12 colon was over 100 µM in each case.
With `O=C1/C(=N\S(=O)(=O)c2ccccc2)C([n+]2ccc(Cc3ccccc3)cc2)=C([O-])c2ccccc21`, the TGI came out at 1.49 µM in the assay with HT29 colon; 1.96 µM in the assay with SW-620 colon; 3.13 µM in the assay with OVCAR-4 ovarian; 18.3 µM in the assay with NCI/ADR-RES ovarian; 12.7 µM with HOP-92 NSCLC; 3.12 µM in the assay with SN12C renal. Besides, the TGI with HCT-15 colon turned out to be 3.36 µM; in the assay with KM12 colon it was 4.7 µM.
For the compound `COc1ccc(C2N(NC(=O)c3ccncc3)C(=O)CS2(=O)=O)cc1F` (centres undefined), the TGI with HT29 colon, in the assay on SW-620 colon, in the assay on DMS 273 small cell lung, in the assay with OVCAR-4 ovarian, in the assay on HOP-92 NSCLC and in the assay with SN12C renal was over 100 µM throughout. Further, the TGI in the assay with XF 498 CNS, in the assay on HCT-15 colon, in the assay with KM12 colon and with LXFL 529 NSCLC was over 100 µM each time.
As to `COc1ccc(NC(C)=O)cc1N1C(=O)/C(=C\c2cc(OC)c(OC)c(OC)c2)SC1c1ccccc1` (centres undefined), the TGI with HT29 colon, with SW-620 colon, in the assay on OVCAR-4 ovarian, in the assay with NCI/ADR-RES ovarian, with HOP-92 NSCLC and in the assay with SN12C renal was over 100 µM throughout. Also, the TGI in the assay with HCT-15 colon and in the assay on KM12 colon was over 100 µM each time.
For `O=C(O)c1nc(-c2ccccc2)[nH]c1C(=O)O`, the TGI was 20.2 µM with HT29 colon; 6.78 µM in the assay with SW-620 colon; 32.1 µM with OVCAR-4 ovarian; over 82.8 µM in the assay with NCI/ADR-RES ovarian; 32.4 µM in the assay with HOP-92 NSCLC; 26.6 µM in the assay with SN12C renal. Further, the TGI with HCT-15 colon was 38.8 µM; with KM12 colon it was 14.6 µM.
Turning to `CN1CCN(CCCBr)CC1`, the TGI in the assay on HT29 colon, with SW-620 colon, with OVCAR-4 ovarian, in the assay with NCI/ADR-RES ovarian, in the assay on HOP-92 NSCLC and in the assay on SN12C renal was over 100 µM in each case. For the same compound, the TGI in the assay on HCT-15 colon and in the assay on KM12 colon was over 100 µM each time.
In the case of `O=C1C(=O)c2ccccc2C(O)=C1CCCc1ccc(Oc2ccccc2)cc1`, the TGI is 75.2 µM with HT29 colon; 73.2 µM in the assay on KM20L2 colon; over 100 µM in the assay on SW-620 colon; 51.8 µM in the assay with DMS 273 small cell lung; over 100 µM in the assay on OVCAR-4 ovarian; 49.5 µM with HOP-92 NSCLC. In addition, the TGI in the assay on SN12C renal was over 100 µM; with XF 498 CNS, 66.1 µM; with HCT-15 colon, 79.7 µM; in the assay on KM12 colon it was over 100 µM; with LXFL 529 NSCLC, over 100 µM.
Consider `C/C(Nc1ccc(F)cc1)=C1/CCOC1=O`, for which the TGI in the assay with HT29 colon, with SW-620 colon, with OVCAR-4 ovarian, in the assay with NCI/ADR-RES ovarian, with HOP-92 NSCLC and in the assay on SN12C renal was over 100 µM each time. The TGI in the assay with HCT-15 colon and with KM12 colon was over 100 µM throughout.
For the compound `CC1(O)CC(=O)c2c(cc3ccc(-c4c5c(c(O)c6c(O)cccc46)C(=O)CC(C)(O)C5)c(O)c3c2O)C1` (centres undefined), the TGI in the assay on HT29 colon was 3.96 µM; in the assay with SW-620 colon it was 18.9 µM; in the assay on OVCAR-4 ovarian it was 12.9 µM; with NCI/ADR-RES ovarian, 6.63 µM; in the assay with HOP-92 NSCLC it was 0.815 µM; with SN12C renal it was 13.1 µM. The TGI with HCT-15 colon was found to be 4.08 µM; in the assay on KM12 colon it was 0.24 µM.
